Results reported in ChEMBL document CHEMBL3046292, “The effects of luteolin on phenoloxidase and the growth of Spodoptera exigua (Hubner) larvae (Lepidoptera: Noctuidae)” (J Pestic Sci, 2010).
Converted amounts (≈) assume the structure as drawn. The source made the active and inactive calls. No cut-off for these calls is given here.

How the values were obtained:
Spodoptera exigua [1] = experiment: Insecticidal activity against third-instar Spodoptera exigua larvae assessed as eclosion at 0.8 g/l (reference value: 96.67 +/- 1.40%); type: functional
Spodoptera exigua [2] = experiment: Insecticidal activity against third-instar Spodoptera exigua larvae assessed as per pupa weight at 0.4 g/l by pupa weight inhibition assay (reference value: 0.1054 +/- 0.01 g/pupae); type: functional
Spodoptera exigua [3] = experiment: Insecticidal activity against third-instar Spodoptera exigua larvae assessed as mortality at 4 g/l measured after 5 days; type: functional; conditions: 120 h
Spodoptera exigua [4] = experiment: Insecticidal activity against third-instar Spodoptera exigua larvae assessed as pupation at 0.1 g/l (reference value: 96.67 +/- 1.40%); type: functional
Spodoptera exigua [5] = experiment: Insecticidal activity against third-instar Spodoptera exigua larvae assessed as inhibition of body weight increase at 8 g/l measured from 24 hr to 48 hr; type: functional
Spodoptera exigua [6] = experiment: Insecticidal activity against third-instar Spodoptera exigua larvae assessed as inhibition of body weight increase at 4 g/l measured from 24 hr to 48 hr; type: functional
Spodoptera exigua [7] = experiment: Insecticidal activity against third-instar Spodoptera exigua larvae assessed as mortality at 4 g/l measured after 11 days; type: functional; conditions: 264 h
Spodoptera exigua [8] = experiment: Insecticidal activity against third-instar Spodoptera exigua larvae assessed as per pupa weight at 0.2 g/l by pupa weight inhibition assay (reference value: 0.1054 +/- 0.01 g/pupae); type: functional
Spodoptera exigua [9] = experiment: Insecticidal activity against third-instar Spodoptera exigua larvae assessed as mortality at 16 g/l measured after 5 days; type: functional; conditions: 120 h
Spodoptera exigua [10] = experiment: Insecticidal activity against third-instar Spodoptera exigua larvae assessed as mortality at 16 g/l measured after 9 days; type: functional; conditions: 216 h
Spodoptera exigua [11] = experiment: Insecticidal activity against third-instar Spodoptera exigua larvae assessed as eclosion at 0.2 g/l (reference value: 96.67 +/- 1.40%); type: functional
Spodoptera exigua [12] = experiment: Insecticidal activity against third-instar Spodoptera exigua larvae assessed as mortality treated after 5 days; type: functional; conditions: 120 h
Spodoptera exigua [13] = experiment: Insecticidal activity against third-instar Spodoptera exigua larvae assessed as mortality at 4 g/l measured after 7 days; type: functional; conditions: 168 h
Spodoptera exigua [14] = experiment: Insecticidal activity against third-instar Spodoptera exigua larvae assessed as inhibition of body weight increase at 16 g/l measured from 24 hr to 48 hr; type: functional
Spodoptera exigua [15] = experiment: Insecticidal activity against third-instar Spodoptera exigua larvae assessed as mortality at 2 g/l measured after 3 days; type: functional; conditions: 72 h
[16] = target: T1, Phenol oxidase (Plutella xylostella) (UniProt B5U2Z5); experiment: Inhibition of Spodoptera exigua larvae phenoloxidase assessed as remaining activity at 0.45 mmol/l
T1 sequence (whole entry): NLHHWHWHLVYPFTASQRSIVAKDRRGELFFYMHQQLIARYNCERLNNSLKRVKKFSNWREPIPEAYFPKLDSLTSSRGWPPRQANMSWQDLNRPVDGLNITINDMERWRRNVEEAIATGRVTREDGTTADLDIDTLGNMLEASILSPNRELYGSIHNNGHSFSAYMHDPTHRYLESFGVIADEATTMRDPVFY

Spodoptera exigua [17] = experiment: Insecticidal activity against third-instar Spodoptera exigua larvae assessed as per pupa weight at 0.1 g/l by pupa weight inhibition assay (reference value: 0.1054 +/- 0.01 g/pupae); type: functional
Spodoptera exigua [18] = experiment: Insecticidal activity against third-instar Spodoptera exigua larvae assessed as eclosion at 1.6 g/l (reference value: 96.67 +/- 1.40%); type: functional
Spodoptera exigua [19] = experiment: Insecticidal activity against third-instar Spodoptera exigua larvae assessed as mortality at 8 g/l measured after 5 days; type: functional; conditions: 120 h
Spodoptera exigua [20] = experiment: Insecticidal activity against third-instar Spodoptera exigua larvae assessed as mortality at 16 g/l measured after 3 days; type: functional; conditions: 72 h
Spodoptera exigua [21] = experiment: Insecticidal activity against third-instar Spodoptera exigua larvae assessed as inhibition of body weight increase at 1 g/l measured from 24 hr to 48 hr; type: functional
Spodoptera exigua [22] = experiment: Insecticidal activity against third-instar Spodoptera exigua larvae assessed as mortality at 2 g/l measured after 11 days; type: functional; conditions: 264 h
Spodoptera exigua [23] = experiment: Insecticidal activity against third-instar Spodoptera exigua larvae assessed as pupation at 0.2 g/l (reference value: 96.67 +/- 1.40%); type: functional
Spodoptera exigua [24] = experiment: Insecticidal activity against third-instar Spodoptera exigua larvae assessed as per pupa weight at 1.6 g/l by pupa weight inhibition assay (reference value: 0.1054 +/- 0.01 g/pupae); type: functional
Spodoptera exigua [25] = experiment: Insecticidal activity against third-instar Spodoptera exigua larvae assessed as pupation at 1.6 g/l (reference value: 96.67 +/- 1.40%); type: functional
Spodoptera exigua [26] = experiment: Insecticidal activity against third-instar Spodoptera exigua larvae assessed as mortality at 16 g/l measured after 7 days; type: functional; conditions: 168 h
Spodoptera exigua [27] = experiment: Insecticidal activity against third-instar Spodoptera exigua larvae assessed as eclosion at 0.4 g/l (reference value: 96.67 +/- 1.40%); type: functional
Spodoptera exigua [28] = experiment: Insecticidal activity against third-instar Spodoptera exigua larvae assessed as mortality at 16 g/l measured after 11 days; type: functional; conditions: 264 h
Spodoptera exigua [29] = experiment: Insecticidal activity against third-instar Spodoptera exigua larvae assessed as mortality treated after 7 days; type: functional; conditions: 168 h
Spodoptera exigua [30] = experiment: Insecticidal activity against third-instar Spodoptera exigua larvae assessed as mortality at 4 g/l measured after 3 days; type: functional; conditions: 72 h
[31] = target: T1, Phenol oxidase (Plutella xylostella); experiment: Inhibition of Spodoptera exigua larvae phenoloxidase assessed as remaining activity at 0.15 mmol/l
Spodoptera exigua [32] = experiment: Insecticidal activity against third-instar Spodoptera exigua larvae assessed as mortality treated after 11 days; type: functional; conditions: 264 h
Spodoptera exigua [33] = experiment: Insecticidal activity against third-instar Spodoptera exigua larvae assessed as mortality at 8 g/l measured after 9 days; type: functional; conditions: 216 h
Spodoptera exigua [34] = experiment: Insecticidal activity against third-instar Spodoptera exigua larvae assessed as pupation at 0.4 g/l (reference value: 96.67 +/- 1.40%); type: functional
Spodoptera exigua [35] = experiment: Insecticidal activity against third-instar Spodoptera exigua larvae assessed as per pupa weight at 0.8 g/l by pupa weight inhibition assay (reference value: 0.1054 +/- 0.01 g/pupae); type: functional
Spodoptera exigua [36] = experiment: Insecticidal activity against third-instar Spodoptera exigua larvae assessed as mortality at 4 g/l measured after 9 days; type: functional; conditions: 216 h
Spodoptera exigua [37] = experiment: Insecticidal activity against third-instar Spodoptera exigua larvae assessed as pupation at 0.8 g/l (reference value: 96.67 +/- 1.40%); type: functional
Spodoptera exigua [38] = experiment: Insecticidal activity against third-instar Spodoptera exigua larvae assessed as mortality at 8 g/l measured after 3 days; type: functional; conditions: 72 h
[39] = target: T1, Phenol oxidase (Plutella xylostella); experiment: In vivo inhibition of Spodoptera exigua larvae phenoloxidase
Spodoptera exigua [40] = experiment: Insecticidal activity against third-instar Spodoptera exigua larvae assessed as inhibition of body weight increase at 2 g/l measured from 24 hr to 48 hr; type: functional
Spodoptera exigua [41] = experiment: Insecticidal activity against third-instar Spodoptera exigua larvae assessed as mortality at 2 g/l measured after 5 days; type: functional; conditions: 120 h
Spodoptera exigua [42] = experiment: Insecticidal activity against third-instar Spodoptera exigua larvae assessed as mortality treated after 9 days; type: functional; conditions: 216 h
Spodoptera exigua [43] = experiment: Insecticidal activity against third-instar Spodoptera exigua larvae assessed as eclosion at 0.1 g/l (reference value: 96.67 +/- 1.40%); type: functional
Spodoptera exigua [44] = experiment: Insecticidal activity against third-instar Spodoptera exigua larvae assessed as mortality at 8 g/l measured after 7 days; type: functional; conditions: 168 h
Spodoptera exigua [45] = experiment: Insecticidal activity against third-instar Spodoptera exigua larvae assessed as mortality at 2 g/l measured after 9 days; type: functional; conditions: 216 h
Spodoptera exigua [46] = experiment: Insecticidal activity against third-instar Spodoptera exigua larvae assessed as mortality at 2 g/l measured after 7 days; type: functional; conditions: 168 h
Spodoptera exigua [47] = experiment: Insecticidal activity against third-instar Spodoptera exigua larvae assessed as mortality at 8 g/l measured after 11 days; type: functional; conditions: 264 h

O=c1cc(-c2ccc(O)c(O)c2)oc2cc(O)cc(O)c12 [LUTEOLIN]
Activity (Spodoptera exigua [1]): 43.33%
Activity (Spodoptera exigua [2]): 0.0798 g
mortality at 4000 µg/mL (Spodoptera exigua [3]): 38%
Activity (Spodoptera exigua [4]): 96.67%
inhibition at 8000 µg/mL (Spodoptera exigua [5]): 56.8%
inhibition at 4000 µg/mL (Spodoptera exigua [6]): 49.6%
mortality at 4000 µg/mL (Spodoptera exigua [7]): 61%
Activity (Spodoptera exigua [8]): 0.0898 g
mortality at 16000 µg/mL (Spodoptera exigua [9]): 60.6%
mortality at 16000 µg/mL (Spodoptera exigua [10]): 84.1%
Activity (Spodoptera exigua [11]): 83.33%
LC50 (Spodoptera exigua [12]): 8970 µg/mL (≈ 31.3 mM)
mortality at 4000 µg/mL (Spodoptera exigua [13]): 48.5%
inhibition at 16000 µg/mL (Spodoptera exigua [14]): 66.8%
mortality at 2000 µg/mL (Spodoptera exigua [15]): 10.1%
Activity [16]: 45.3%
Activity (Spodoptera exigua [17]): 0.0905 g
Activity (Spodoptera exigua [18]): 36.67%
mortality at 8000 µg/mL (Spodoptera exigua [19]): 47.3%
mortality at 16000 µg/mL (Spodoptera exigua [20]): 33.2%
inhibition at 1000 µg/mL (Spodoptera exigua [21]): 38%
mortality at 2000 µg/mL (Spodoptera exigua [22]): 42.6%
Activity (Spodoptera exigua [23]): 90%
Activity (Spodoptera exigua [24]): 0.0647 g
Activity (Spodoptera exigua [25]): 36.67%
mortality at 16000 µg/mL (Spodoptera exigua [26]): 74.5%
Activity (Spodoptera exigua [27]): 66.67%
mortality at 16000 µg/mL (Spodoptera exigua [28]): 90.5%
LC50 (Spodoptera exigua [29]): 5560 µg/mL (≈ 19.4 mM)
mortality at 4000 µg/mL (Spodoptera exigua [30]): 23.5%
Activity [31]: 67.2%
LC50 (Spodoptera exigua [32]): 2530 µg/mL (≈ 8.84 mM)
mortality at 8000 µg/mL (Spodoptera exigua [33]): 72.9%
Activity (Spodoptera exigua [34]): 70%
Activity (Spodoptera exigua [35]): 0.0743 g
mortality at 4000 µg/mL (Spodoptera exigua [36]): 57.4%
Activity (Spodoptera exigua [37]): 53.33%
mortality at 8000 µg/mL (Spodoptera exigua [38]): 29.8%
inhibition [39]: Active
inhibition at 2000 µg/mL (Spodoptera exigua [40]): 42.7%
mortality at 2000 µg/mL (Spodoptera exigua [41]): 15.8%
LC50 (Spodoptera exigua [42]): 3540 µg/mL (≈ 12.4 mM)
Activity (Spodoptera exigua [43]): 86.67%
mortality at 8000 µg/mL (Spodoptera exigua [44]): 57.7%
mortality at 2000 µg/mL (Spodoptera exigua [45]): 33.8%
mortality at 2000 µg/mL (Spodoptera exigua [46]): 26.3%
mortality at 8000 µg/mL (Spodoptera exigua [47]): 77.7%
